In brackets after ≈: the same amount, converted by molar mass. Entries after “also recorded” stand apart in the source; their conditions may differ. Where two headings read alike, the source gives them in different places.
Experiments:
Cytotoxicity assay (MTT) = type: cell-based; conditions: human, Huh7it-1 cells, mean ± SD of triplicate
Method: The cytotoxicity analysis was assessed using MTT assay 3-(4,5-Dimethylthiazol-2-Yl)-2,5-Diphenyltetrazolium Bromide. Solutions with extract concentrations of 1000, 400, 100, 50, 10, 1and […] were added onto Huh7it-1 cells in 96 well plates. After 46 h incubation, the medium was removed and 150 μl/well of 10% MTT was added then incubated for 4 h. The purple precipitates were then dissolved in dimethyl sulfoxide (DMSO). The purple solution was measured for UV absorbance using a microplate reader at 560 nm. SPSS probit was used to calculate the cytotoxic concentration 50% (CC50).

[1] = tested on: murine leukemia P-388 cells; parameters: method as in PMID 34498963; conditions: cited from earlier work
HCV JFH1a = experiment: Antiviral activity assay (HCV infection of Huh7it-1 cells, titre by immunostaining); type: cell-based, hepatitis C virus (genotype 2a); conditions: for IC50: Hepatitis C virus, read-out: IC50 (anti-HCV activity); for Anti-HCV activity in words: highest concentration examined 50 μg/ml
Method: Hepatocyte cells of Huh7it-1 [18] were cultivated in DMEM-Dulbeco’s Modiffied Eagle Medium (GIBCO Invitrogen). The medium was supplemented with 10% Fetal Bovine Serum (FBS, GIBCO-Invitrogen), 0.15 mg/ml kanamycin solution (SIGMA) and 1x Non-Essential Amino Acids (NEAA, GIBCO-Invitrogen). The cell culture was incubated in 5% CO2 at 37 °C. HCV JFH1a was propagated in Huh7it-1 suspended in 4 ml JFH1 suspension and 4 ml DMEM and was incubated at 37 °C in 5% CO2 for 4 h. The suspension was divided into eight flasks and the supernatant was harvested on the third day. The supernatant was concentrated and examined for its viral titration and stored at − 80 °C [10].
The hepatocyte cells of Huh7it-1 were seeded on a 48 well plate with a cell density of 5.4 × 10^4 and incubated for 24 h. […] The supernatant was removed and washed with medium and placed back into solutions containing the same concentrations of extract. The cultures were then incubated for 48 h and the supernatant was taken to examine the titer infection of the sample by immunostaining.
(§1) Viral titration was performed by serially diluting the culture supernatant in DMEM medium and inoculating onto Huh7it-1 cells. After incubation for 41 h, the cells were fixed by 3.7% formaldehyde and permeabilized with 0.5% triton X-100 for 10 min. First antibody (HCV infected serum patient) was used in 1% bovine serum albumin (BSA) /2%BlockIce/ phosphate buffer saline (PBS) with a 300x dilution then incubated for 60 min. Second antibody (HRP-Goat anti human) was used in 1%BSA/2%BlockIce/PBS with a 400x dilution (50 μl/well) and then incubated for 60 min at room temperature. To visualize the infectious foci, 3,3′-diaminobenzidine (DAB) staining (DAB Thermo Scientific, USA) was used for 15 min until a brown color was observed. SPSS probit was used to calculate inhibition concentration 50% (IC50) values.

HCV NS3 protein = experiment: Immunoblotting of HCV NS3 protein in infected Huh7it cells; type: cell-based, hepatitis C virus; conditions: Huh7it-HCV infected cells MOI 0.5, various concentrations, 48 h
Method: Huh7it-1 cells were lysed with Ripa buffer and the amount of protein was checked using a bichincronic acid (BCA) assay kit. The proteins were separated in (sodium dodecyl sulfate polyacrylamide gel electrophoresis (SDS-PAGE) gel and transferred onto a PVDF membrane (Millipore, Bed-ford, MA, USA). Five percent skimmed milk was added to block non-specific binding and incubated for 60 min. First antibody, HCV NS3-specific mouse monoclonal antibody (clone H23; Abcam, Cambridge, MA, USA) and glyceraldehyde-3-phosphate dehydrogenase (GAPDH) antibody (MBL) was added and incubated for 1 h. The 0.05% PBST was used for membrane washing. Second antibody, HRP-conjugated goat anti mouse immunoglobulin (MBL) was incubated for 1 h and the respective protein was visualized using Clarity Western ECL substrate (Biorad). The chemical luminescence was detected using ImageQuant LAS 4000 (GE healthcare).
Culture of Huh7it-HCV infected cells (MOI = 0.5) was treated with various concentration of compounds. After 48 h of incubation, cells were subjected to western blot analysis using monoclonal antibody against HCV NS3 protein. GAPDH served as an internal control

[2] = tested on: HCV life cycle (entry / post-entry); experiment: Time-of-addition experiment; type: cell-based; conditions: 25 μg/ml; for inhibition at 25 µg/mL: Hepatitis C virus, mean ± SD of triplicate; for Mode of action: time of addition
Method: A time addition experiment was performed to analyze the effect of the extract on the HCV life cycle. Entry inhibition was conducted by treated cells with extracts during viral inoculation to evaluate the inhibition in binding, entry and endocytosis. Post entry inhibition was conducted by treating cells with the extracts after viral inoculation. Supernatants were collected and viral titration and immunostaining was used to assess the mode of action.
as §1

[3] = tested on: N-formylmethionylleucylphenylalanine-induced superoxide production; parameters: method as in PMID 17822293; conditions: cited from earlier work
brine shrimp larvae = tested on: brine shrimp larvae; parameters: method as in PMID 19483341; conditions: cited from earlier work
[4] = Huh7it-1 cells, HCV JFH1a MOI 0.1, 48 h, mean ± SD of triplicate
[5] = read-out: % Inhibition During inoculation
[6] = read-out: % Inhibition During+Post inoculation
[7] = read-out: % Inhibition Post inoculation

SMILES | CC50 at 46 h (Cytotoxicity assay (MTT)) [µg/mL] | IC50 against murine leukemia P-388 cells [1] [µg/mL] | IC50 (HCV JFH1a; 48 h) [µg/mL] | Anti-HCV activity in words (HCV JFH1a; Huh7it-1 cells) | HCV NS3 protein level (western blot) (HCV NS3 protein) | IC50 (HCV JFH1a; [4]) [µg/mL] | inhibition at 25 µg/mL [2, 5] [%] | inhibition at 25 µg/mL [2, 6] [%] | inhibition at 25 µg/mL [2, 7] [%] | Mode of action [2] | HCV NS3 protein level (western blot) (HCV NS3 protein; listed as N-methylflidersine) | HCV NS3 protein level (western blot) (HCV NS3 protein; listed as N-methylflindersin) | IC50 [3] [µM] | LD50 towards brine shrimp larvae (brine shrimp larvae) [µg/mL]
COc1cc2c(c(OC)c1C(C)=O)C=CC(C)(C)O2 [Methylevodionol] | 310 ± 2.5 (≈ 1180 µM) | 11.98 (≈ 45.7 µM) | > 50 | less active; also recorded: did not reveal anti-HCV activities |  |  |  |  |  |  |  |  |  | 
COc1c2c(c3c(c1C(C)=O)OC(C)(C)C=C3)OC(C)(C)C=C2 [O-methyloktadrenolon] | 63 ± 2.3 (≈ 200 µM) |  |  |  | decreased HCV NS3 protein level | 10.9 ± 1.2 (≈ 34.7 µM) | 9.1 ± 8.5 | 98.4 ± 0.4 | 98 ± 0.9 | inhibit HCV in the post-entry step; also recorded: Post-entry inhibition |  |  |  | 
COc1cc2oc(=O)ccc2c2c1C=CC(C)(C)O2 [Alloxanthoxyletin] | 93 ± 3 (≈ 360 µM) |  |  |  |  | 21.7 ± 2.2 (≈ 84.1 µM) |  |  |  |  |  |  |  | 
Cn1c(=O)c2c(c3ccccc31)OC(C)(C)C=C2 [N-methylflindersine] | 97 ± 3.3 (≈ 402 µM) | 21.06 (≈ 87.3 µM) |  |  | HCV NS3 protein reduction | 3.8 ± 2.7 (≈ 15.7 µM) | 7.7 ± 1.8 | 83 ± 0.8 | 84.1 ± 2.9 | inhibit HCV in the post-entry step; also recorded: Post-entry inhibition | decreased level of HCV NS3 protein expression | decreased HCV NS3 protein level | < 12 | 1.39
COc1c2ccoc2c(OC)c2oc(=O)ccc12 [Isopimpinellin] | > 1000 |  | > 50 | less active; also recorded: did not reveal anti-HCV activities |  |  |  |  |  |  |  |  |  | 
COc1cc(O)c(C(C)=O)c2c1C=CC(C)(C)O2 [Alloevodionol] | > 1000 |  |  | less active; also recorded: moderate inhibition |  | 41.1 ± 3.1 (≈ 166 µM) |  |  |  |  |  |  |  | 
